In patent publication US20130210099A1, “METHOD FOR THE PRODUCTION OF ERYTHRITOL” (ANNIKKI GMBH, priority 2010, published 2013):

T1: Err1 (Trichoderma reesei, UniProt Q0GYU5)
T1 sequence (Q0GYU5 1-331): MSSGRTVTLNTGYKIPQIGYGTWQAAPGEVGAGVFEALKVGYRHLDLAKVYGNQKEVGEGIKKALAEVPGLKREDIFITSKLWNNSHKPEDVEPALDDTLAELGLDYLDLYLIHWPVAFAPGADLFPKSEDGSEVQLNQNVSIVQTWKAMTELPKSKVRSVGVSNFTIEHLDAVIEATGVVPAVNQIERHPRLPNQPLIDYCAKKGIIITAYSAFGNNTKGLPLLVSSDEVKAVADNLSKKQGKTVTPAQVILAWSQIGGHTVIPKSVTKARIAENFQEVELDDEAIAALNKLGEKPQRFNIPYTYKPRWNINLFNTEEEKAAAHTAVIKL

B1: Err1 (Trichoderma reesei) (protein)
chain: MSSGRTVTLNTGYKIPQIGYGTWQAAPGEVGAGVFEALKVGYRHLDLAKVYGNQKEVGEGIKKALAEVPGLKREDIFITSKLWNNSHKPEDVEPALDDTLAELGLDYLDLYLIHWPVAFAPGADLFPKSEDGSEVQLNQNVSIVQTWKAMTELPKSKVRSVGVSNFTIEHLDAVIEATGVVPAVNQIERHPRLPNQPLIDYCAKKGIIITAYSAFGNNTKGLPLLVSSDEVKAVADNLSKKQGKTVTPAQVILAWSQIGGHTVIPKSVTKARIAENFQEVELDDEAIAALNKLGEKPQRFNIPYTYKPRWNINLFNTEEEKAAAHTAVIKL

Tests used:
[1] = molecular target: T2, GST::err1 fusion proteins (Trichoderma reesei, UniProt Q0GYU5); test: Enzyme assay measuring NADPH-decrease with different substrates; type: biochemical; conditions: NADPH decrease at 340 nm; 400 μM NADPH, 10 mM substrate, 30° C., pH 7
T2 construct: made in house; host or cells: E. coli BL21 (DE3) pLysS
Procedure: The following 1 mL assay was performed: 400 μM NADPH (in 10 mM sodium phosphate buffer, pH 7), and 25 μL purified GST::err1 enzyme were mixed in an lmL quartz cuvette and incubated at 30° C. for 1 min. Then adding D-erythrose to a final concentration of 10 mM started the reaction. The decrease of NADPH concentration was measured in a spectrophotometer at 340 nm. As a control, a blank was performed using water instead of D-erythrose.

[2] = molecular target: T2, GST::err1 fusion proteins; test: HPLC analysis of the enzymatic conversion of erythrose; type: biochemical; conditions: 4 mM NADPH, 5 mM erythrose, 25° C. or 37° C., 2 h
Procedure: The following 1 mL assays have been performed prior to HPLC analysis: Assay 1 comprised 4 mM NADPH (in 10 mM sodium phosphate buffer, pH 7), 25 μL purified GST::err1 enzyme, 5 mM erythrose and was incubated at 25° C. for 2 hours. Assay 2 was performed according to assay 1, but was incubated at 37° C. for 2 h. Both assays were stopped by incubating at 85° C. for 10 min and afterwards were filtered using 0.2 μm filters. As negative control assay 3 was performed like assay 1, but was immediately stopped by incubation at 85° C. for 10 min and assay 4 was performed according to assay 1, but sodium phosphate buffer instead of erythrose was used and it was immediately stopped at 85° C. for 10 min.
Analyses were performed using a Thermo Finnigan Surveyor HPLC instrument (Thermo Fisher Scientific, MA, US). All 10 μL samples were injected onto a Rezex RHM-Monosaccharide column (H+, 8%, 150×7.8 mm; Phenomenex, CA, US). Water was used as the mobile phase and elution was followed at 85° C., applying a flow rate of 0.3 mL/min for 20 min. 1 mM D-Erythrose (Sigma) and erythritol (Sigma) were used as reference substances.

Err1 = molecular target: T1, Err1; test: Determination of Vmax and Km according to Liepins et al. (2006)
[3] = substrate: O=CC=O; test: purified protein, by the assay type; conditions: other: substrate of Err1
[4] = substrate: O=C[C@H](O)CO; test: purified protein, by the assay type; conditions: other: substrate of Err1

| Molecule | Absorbance decrease [1] | enzymatic conversion of erythrose (HPLC) [2] | activity compared with the other substrates (Err1; higher activity versus substrates with good activity for GLD1) | Km (Err1; substrate of Err1) | Vmax (Err1; substrate of Err1) | Km [3] | Vmax [3] | Km [4] | Vmax [4] |
| --- | --- | --- | --- | --- | --- | --- | --- | --- | --- |
| O=CC=O [Glyoxal, glyoxal, reference compound] | −83.28 mAbs/min | – | – | – | – | – | – | – | – |
| O=C[C@H](O)[C@H](O)CO [Erythrose, D-erythrose] | −83.77 mAbs/min | reduced to erythritol | approximately 10 fold | 16 µM | 530 nkat/mg | – | – | – | – |
| B1 | – | – | – | – | – | 2.4 mM | 22.5 µmol/min/mg | 0.9 mM | 9 µmol/min/mg |
